Results: patent EP0717040A1, “Thiazine or thiazepine derivatives which inhibit NOS” (Japan Tobacco Inc., priority 1994, dated 1996)

Key:
[1] = biological target: inducible NO synthase (iNOS) (Rattus norvegicus, UniProt Q06518); assay: Activity to inhibit inducible NO synthase (iNOS) derived from rat macrophages; conversion of [3H]-L-arginine to [3H]-L-citrulline; format: biochemical; parameters: iNOS was extracted from the macrophages which have been treated with lipopolysaccharide and interferon-γ; endogenous in cells; host or cells: rat peritoneal macrophages treated with lipopolysaccharide and interferon-γ; details: iNOS from peritoneal macrophages treated with lipopolysaccharide and interferon-γ, 150 µM L-arginine, 30 minutes at 37°C; read-out: IC₅₀
Description: Activity to inhibit inducible NO synthase (iNOS) derived from rat macrophages
According to partly modified method of Y. Yui et al.(J. Biol. Chem., 266 (19), 12544-12547 (1991)), an iNOS fraction was prepared by applying lipopolysaccharide and interferon-γ to peritoneal macrophages. Thereafter, its enzymatic activity was measured based on the conversion of [³H]-L-arginine to [³H]-L-citrulline, in the same manner as in the case of cNOS.
To the iNOS thus extracted, a 50 mM Tris-HCl buffer solution (pH 7.4) containing 150 µM L-arginine, 5 mM NADPH, 5 mM DTT, 0.5 mM 5,6,7,8-tetrahydro-L-biopterin and 5 µM FAD was added together with a test compound and [³H]-L-arginine. The mixture was incubated for 30 minutes at 37°C. Thereafter, the reaction was terminated by adding a 25 mM sodium acetate buffer solution (pH 5.5) containing 1.25 mM L-citrulline, 2.5 mM EDTA and 0.25 mM EGTA. The reaction solution was passed through a cation-exchange resin. The obtained eluate was combined with the additional eluate obtained thereafter by eluting with water, and the radioactivity of the combined eluate was measured. The inhibition rate of the test compound on iNOS was calculated in the same manner as in Test 1. The concentration (IC₅₀) of the test compound required for inhibiting 50 % of the enzyme activity, were calculated.

[2] = biological target: T1, endothelium nitric oxide synthase (eNOS) (Rattus norvegicus, UniProt Q62600); assay: Blood pressure elevating activity in rat by inhibition of eNOS; format: in vivo; details: dose to elevate mean blood pressure by 25 mmHg; anesthetized rat, administered via femoral vein
T1 construct: from tissue; host or cells: living anesthetized rat
Description: Blood pressure elevating activity in rat by inhibition of endothelium nitric oxide synthase (eNOS) A rat was anesthetized with by peritoneal injection of sodium barbital (300 mg/kg) and catheters were inserted into a femoral artery and a femoral vein. Blood pressure was measured through the catheter inserted in the femoral artery and a test compound was administered through the catheter inserted in the femoral vein. […]

[3] = biological target: T2, constitutive NO synthase (cNOS) (Rattus norvegicus, UniProt P29476); assay: Activity to inhibit constitutive NO synthase (cNOS) derived from rat cerebellum; conversion of [3H]-L-arginine to [3H]-L-citrulline; format: biochemical; details: cNOS extracted from rat cerebellum, 10 µM L-arginine, 10 minutes at 25°C; read-out: IC₅₀
T2 construct: cNOS was extracted from a rat cerebellum; from tissue; host or cells: rat cerebellum
Description: Activity to inhibit constitutive NO synthase (cNOS) derived from rat cerebellum
The inhibition activity was tested according to a method of P. A. Bush et al. (Biochem, Biophys, Res. Commun., 185, 960-966 (1992)), using [³H]-L-arginine as a substrate and taking the conversion of [³H]-L-arginine to [³H]-L-citrulline as an index of the enzyme activity.
The test was conducted as follows: First, cNOS was extracted from a rat cerebellum with a 50 mM Tris-HCl buffer solution (pH 7.4) which contains 0.1 mM EDTA (ethylenediamine tetraacetate), 0.1 mM EGTA (ethyleneglycol bis(β-aminoethyl ether)-tetraacetate), 0.5 mM DTT (dithiothreitol), 1 µM PMSF (phenylmethylsulfonyl fluoride), 1 µM bestatin A, and 1 µM leupeptin. To the cNOS thus extracted, a 50 mM Tris-HCl buffer solution (pH 7.4) containing 10 µM L-arginine, 10 µM NADPH, 2 mM calcium chloride and calmoduline (0.1 µg), together with a test compound and [³H]-L-arginine were added. The mixture was incubated for 10 minutes at 25°C. The reaction was terminated by adding 20 mM sodium acetate buffer solution (pH 5.5) containing 1 mM L-citrulline, 2 mM EDTA, and 0.2 mM EGTA. The reaction solution was passed through a cation-exchange resin. This eluate was combined with another eluate which was obtained thereafter by eluting with water. To the combined eluate, a liquid scintillation cocktail was further added and its radioactivity (A) was measured. At the same time, the radioactivity (B) with respect to the case where the test compound was not added and the radioactivity (C) with respect to the case where an enzyme fraction was not added, were respectively measured. Then, the rate of cNOS inhibition was calculated in accordance with the following equation. The concentration (IC₅₀), at which the test compound can inhibit 50 % of the enzyme activity, were also calculated. Inhibition rate (%) = {1 - (A - C/B - C)} × 100 [formula]

neuronal NOS (nNOS) = biological target: T3, neuronal NOS (nNOS) (Rattus norvegicus, UniProt P29476); assay: Effect on rat cerebral ischemia model by nNOS inhibition: permanent occlusion model; format: in vivo; details: dose 10µg/kg+1µg/kg/min; intravenous 5 minutes after occlusion, then infused for 6 hours; cerebral infarct area after 24 hours
T3 construct: from tissue; host or cells: living rat (brain)
Description: Effect on rat cerebral ischemia model by neuronal NOS (nNOS) inhibition: permanent occlusion model According to a partly modified method of Tamura et al. (J. Cereb. Blood Flow Matab., 1, 53-60 (1981)), an cerebral ischemia model was established by permanently blocking a rat middle cerebral artery. That is, a rat was anesthetized with laughing gas - oxygen and halothane, and then, a hole was formed at a cranial bone in the periphery of oval foramen, thereby exposing the middle cerebral artery. Subsequently, a middle cerebral artery was clipped and coagulated, thereby established a permanent occlusion model. After 24 hours, a brain was excised out and cerebral infarct area were determined by use of triphenyltetrazolium chloride. A test compound was injected intravenously 5 minutes after the occlusion and subsequently infused for 6 hours. The suppression effect was investigated.

IC50 [1]: 0.01 µM | IC50 [3]: 0.02 µM | Suppression Effect (neuronal NOS (nNOS)): ○ (10µg/kg+1µg/kg/min)
SMILES: CCC[C@@H]1CCSC(N)=N1.Cl [Example 31, (R)-2-amino-5,6-dihydro-4-propyl-4H-1,3-thiazine hydrochloride]
ED₂₅ [2]: 0.46 mg/kg
